According to ChEMBL document CHEMBL1201862, “PubChem BioAssay data set” (2004):
Where a name gives a salt, the structure may show the parent alone.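 Cultured in 96-well plates, cells were exposed to test compound for 48 hours across five concentrations. GI50 = concentration required for 50% inhibition of growth.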 Calls of active or inactive are those of the source. Cut-off read from the data, not from the text of the source: active = GI50 up to about 1.1 µM and inactive = higher.

Key:
Experiment in all cases: growth of human tumour cells (NCI), 48 h
SK-OV-3 = test system: SK-OV-3
MDA-MB-231 = test system: MDA-MB-231
EKVX = test system: EKVX
MCF7 = test system: MCF7
SF-539 = test system: SF-539
SF-295 = test system: SF-295
786-0 = test system: 786-0
SR = test system: SR
HCT-116 = test system: HCT-116
OVCAR-5 = test system: OVCAR-5
PC-3 = test system: PC-3
K562 = test system: K562
SNB-19 = test system: SNB-19
UACC-62 = test system: UACC-62
HOP-92 = test system: HOP-92
NCI-H23 = test system: NCI-H23
SK-MEL-2 = test system: SK-MEL-2

Structure (SMILES)	GI50 (SK-OV-3)	GI50 (MDA-MB-231)	GI50 (EKVX)	GI50 (MCF7)	GI50 (SF-539)	GI50 (SF-295)	GI50 (786-0)	GI50 (SR)	GI50 (HCT-116)	GI50 (OVCAR-5)	GI50 (PC-3)	GI50 (K562)	GI50 (SNB-19)	GI50 (UACC-62)	GI50 (HOP-92)	GI50 (NCI-H23)	GI50 (SK-MEL-2)
[N-]=[N+]=NC1CC(n2ccc(N)nc2=O)OC1COP(=O)(O)OP(=O)(O)OP(=O)(O)O (centres undefined)	> 100 µM (inactive)	> 100 µM (inactive)	> 100 µM (inactive)	> 100 µM (inactive)	> 100 µM (inactive)	> 100 µM (inactive)	> 100 µM (inactive)	> 100 µM (inactive)	> 100 µM (inactive)	> 100 µM (inactive)	> 100 µM (inactive)	> 100 µM (inactive)	> 100 µM (inactive)	> 100 µM (inactive)			
C/C(=N\NC(N)=S)c1ccccn1.OB(O)c1ccccc1	5.57 µM (inactive)	7.16 µM (inactive)	4.69 µM (inactive)	4.55 µM (inactive)	3.6 µM (inactive)	7.05 µM (inactive)	3.73 µM (inactive)	3.95 µM (inactive)	3.5 µM (inactive)	6.05 µM (inactive)	4.15 µM (inactive)	3.61 µM (inactive)	10.5 µM (inactive)	3.25 µM (inactive)	10.4 µM (inactive)	11.3 µM (inactive)	
NCCc1cc(O)c(O)cc1O [OXIDOPAMINE HYDROCHLORIDE]	> 100 µM (inactive)	19.5 µM (inactive)	26.6 µM (inactive)	25.3 µM (inactive)	19.2 µM (inactive)	24 µM (inactive)	18.6 µM (inactive)	0.619 µM (active)	18.7 µM (inactive)	37.1 µM (inactive)	33.1 µM (inactive)	21.5 µM (inactive)	32.5 µM (inactive)	31.2 µM (inactive)			43.5 µM (inactive)
O=C(NCCCCCCNC(=O)c1cc(-c2ccccc2)nc2ccccc12)c1cc(-c2ccccc2)nc2ccccc12	> 100 µM (inactive)	> 100 µM (inactive)	> 100 µM (inactive)	> 100 µM (inactive)	> 100 µM (inactive)	84.7 µM (inactive)	31.6 µM (inactive)	> 100 µM (inactive)	> 100 µM (inactive)	> 100 µM (inactive)	> 100 µM (inactive)	> 100 µM (inactive)	> 100 µM (inactive)	> 100 µM (inactive)	> 100 µM (inactive)	> 100 µM (inactive)	
Nn1c(CCCCCCCCc2nnc(COc3ccc(Cl)cc3)n2N)nnc1COc1ccc(Cl)cc1	> 100 µM (inactive)	> 100 µM (inactive)	> 100 µM (inactive)	> 100 µM (inactive)		> 100 µM (inactive)	> 100 µM (inactive)		74.5 µM (inactive)	> 100 µM (inactive)	68.2 µM (inactive)	> 100 µM (inactive)	> 100 µM (inactive)	> 100 µM (inactive)	> 100 µM (inactive)	> 100 µM (inactive)	> 100 µM (inactive)
Nc1ccc2nc(N)n[n+]([O-])c2c1	> 100 µM (inactive)	> 100 µM (inactive)	> 100 µM (inactive)	> 100 µM (inactive)	> 100 µM (inactive)	10 µM (inactive)	> 100 µM (inactive)	> 100 µM (inactive)	> 100 µM (inactive)	> 100 µM (inactive)	> 100 µM (inactive)	> 100 µM (inactive)	> 100 µM (inactive)	> 100 µM (inactive)		> 100 µM (inactive)	> 100 µM (inactive)
CCNc1nc(N)c(C(=O)c2cccs2)s1	36.4 µM (inactive)	50.4 µM (inactive)	26.2 µM (inactive)	22 µM (inactive)	15.5 µM (inactive)	34 µM (inactive)	26.6 µM (inactive)		9.86 µM (inactive)	31.3 µM (inactive)	31.5 µM (inactive)	25.9 µM (inactive)	40.7 µM (inactive)	24.2 µM (inactive)	41.2 µM (inactive)	20.9 µM (inactive)	16.5 µM (inactive)
COc1ccc(-c2c3c(n(C4OC(CO)C(O)C(O)C4O)c(=S)c2C#N)CC(C)(C)CC3=O)cc1 (centres undefined)		> 100 µM (inactive)		> 100 µM (inactive)	> 100 µM (inactive)	> 100 µM (inactive)	> 100 µM (inactive)	74.5 µM (inactive)	73.3 µM (inactive)	> 100 µM (inactive)	> 100 µM (inactive)	> 100 µM (inactive)	> 100 µM (inactive)	97.3 µM (inactive)	> 100 µM (inactive)	> 100 µM (inactive)	> 100 µM (inactive)
O=S(=O)(c1ccc(/N=N/O)nc1)c1ccc2ccccc2c1	> 100 µM (inactive)	> 100 µM (inactive)	> 100 µM (inactive)	> 100 µM (inactive)	> 100 µM (inactive)	> 100 µM (inactive)	> 100 µM (inactive)	> 100 µM (inactive)	> 100 µM (inactive)	> 100 µM (inactive)	38.5 µM (inactive)	75 µM (inactive)	> 100 µM (inactive)	98.4 µM (inactive)		65.9 µM (inactive)	> 100 µM (inactive)
CSc1c(C#N)c(=O)[nH]c2[nH]nc(C)c12	> 100 µM (inactive)	> 100 µM (inactive)	> 100 µM (inactive)	> 100 µM (inactive)	> 100 µM (inactive)		> 100 µM (inactive)	> 100 µM (inactive)	33.3 µM (inactive)	> 100 µM (inactive)	> 100 µM (inactive)	> 100 µM (inactive)	> 100 µM (inactive)	> 100 µM (inactive)		> 100 µM (inactive)	> 100 µM (inactive)
COC(=O)CCc1ccc2c(c1)CC1(C2)Cc2ccc3c(c2C1)CCC3 (centres undefined)	30.4 µM (inactive)	89.1 µM (inactive)	> 100 µM (inactive)	59.6 µM (inactive)	> 100 µM (inactive)	> 100 µM (inactive)	69.8 µM (inactive)	> 100 µM (inactive)	> 100 µM (inactive)	> 10 µM (inactive)	> 100 µM (inactive)	38.7 µM (inactive)	> 100 µM (inactive)	23.6 µM (inactive)	54 µM (inactive)	50.6 µM (inactive)	
Cc1nn(-c2ccccc2)c2nc3c(c(C)nn3-c3ccccc3)c(-c3ccccc3Br)c12	> 100 µM (inactive)	> 100 µM (inactive)	> 100 µM (inactive)	> 100 µM (inactive)	> 100 µM (inactive)	57.3 µM (inactive)	> 100 µM (inactive)	> 100 µM (inactive)	> 100 µM (inactive)	> 100 µM (inactive)	> 100 µM (inactive)	> 100 µM (inactive)	> 100 µM (inactive)	> 100 µM (inactive)	> 100 µM (inactive)	> 100 µM (inactive)	
Cc1ccc(-c2c(C#N)c(-c3ccccc3)n(NS(=O)(=O)c3ccc(C)cc3)c(=O)c2C#N)cc1	96.6 µM (inactive)	> 100 µM (inactive)	89.9 µM (inactive)	37 µM (inactive)	34 µM (inactive)	41.3 µM (inactive)	59.4 µM (inactive)		35.1 µM (inactive)	> 100 µM (inactive)	36.6 µM (inactive)	48 µM (inactive)	50.8 µM (inactive)	43.8 µM (inactive)	11.4 µM (inactive)		35.8 µM (inactive)
C/N=c1/oc2ccccc2cc1C(N)=O	> 100 µM (inactive)	> 100 µM (inactive)	30.8 µM (inactive)	87.7 µM (inactive)	> 100 µM (inactive)	> 100 µM (inactive)	> 100 µM (inactive)	> 100 µM (inactive)	> 100 µM (inactive)		> 100 µM (inactive)	> 100 µM (inactive)	56.4 µM (inactive)	64.1 µM (inactive)	> 100 µM (inactive)	> 100 µM (inactive)	> 100 µM (inactive)
Cc1ccc(/N=C2/SC(c3ccc(C)cc3)(c3ccc(C)cc3)c3ccccc32)cc1	> 100 µM (inactive)	> 100 µM (inactive)	> 100 µM (inactive)	> 100 µM (inactive)	> 100 µM (inactive)	> 100 µM (inactive)	> 100 µM (inactive)		> 100 µM (inactive)	> 100 µM (inactive)	> 100 µM (inactive)	> 100 µM (inactive)	> 100 µM (inactive)	> 100 µM (inactive)	> 100 µM (inactive)	> 100 µM (inactive)	> 100 µM (inactive)
CCOC(=O)CSc1nc(-c2ccc(Cl)cc2)c(C#N)c(=O)[nH]1	> 100 µM (inactive)	50.6 µM (inactive)	> 100 µM (inactive)	99.5 µM (inactive)	> 100 µM (inactive)	> 100 µM (inactive)	> 100 µM (inactive)		72.9 µM (inactive)	> 100 µM (inactive)	> 100 µM (inactive)	36 µM (inactive)	74.8 µM (inactive)	92 µM (inactive)	42.3 µM (inactive)	> 100 µM (inactive)	> 100 µM (inactive)
Nc1nc(Cl)c2nnn(CC3CCC(CO)C3)c2n1 (centres undefined)	> 100 µM (inactive)	> 100 µM (inactive)	> 100 µM (inactive)	> 100 µM (inactive)	> 100 µM (inactive)	> 100 µM (inactive)	> 100 µM (inactive)		> 100 µM (inactive)	> 100 µM (inactive)	> 100 µM (inactive)	> 100 µM (inactive)	> 100 µM (inactive)	> 100 µM (inactive)	> 100 µM (inactive)		> 100 µM (inactive)
